The subject of this test is Staphylococcus aureus. The test can be described thus: Antimicrobial activity against Staphylococcus aureus. The class given is functional.

≈ marks a conversion by molar mass, not a printed value. Calls of active or inactive are those of the source. No cut-off for these calls is given here.

Turning to `C=C/C(C)=C/C[C@H]1C(=C)CC[C@H]2C(C)(C)[C@@H](OC(C)=O)[C@H](O)C[C@]12C`, the result was inactive.

As for `COC(=O)[C@]1(C)CCC[C@@]2(C)[C@@H]3C[C@H](OC(C)=O)[C@H]4C[C@]3(C=C4C)CC[C@@H]21`, the outcome was inactive.

As to `C=C1C[C@@]23CC[C@H]4[C@@](C)(CCC[C@@]4(C)C(=O)OC)[C@@H]2C[C@H](OC(C)=O)[C@H]1C3`, the outcome was inactive.

For `C=C/C(C)=C\C[C@@H]1C(=C)CC[C@@H]2C(C)(C)C[C@@H](OC(C)=O)C[C@@]12C`, the result was inactive.

As to `C[C@@]12CCC[C@@](C)(C(=O)O)[C@H]1CC[C@@]13C[C@H](CC[C@@H]21)[C@]1(C)O[C@H]31`, the MIC was 31.2 µg/mL (≈ 98.1 µM).

Take `C[C@@]1(CO)CCC[C@]2(C)[C@@H]1CC[C@@]13C[C@H](CC[C@@H]21)[C@]1(C)O[C@H]31`: the outcome was inactive.

Turning to `COC(=O)[C@]1(C)CCC[C@@]2(C)[C@@H]3CC[C@H]4C[C@@]3(CC[C@@H]21)[C@H]1O[C@@]41C`, the outcome was inactive.

The record behind these values is ChEMBL document CHEMBL1159357, “Labdane and kaurane diterpenoids from Plectranthus fruticosus” (2003).
